Data taken from US9593155B2, “Oxyntomodulin analogs” (priority 2009, dated 2017).
Like-named read-outs stand apart in the source and are kept apart here. *1 amine or outer side, *2 acyl side, *3 side chain or, on linkers, in order; H or OH if unused. Where a SMILES comes first, the peptide text is derived from it. Bridges are numbered along the chain shown (N, C = ends). Where no end group is shown, it is not given here. Side-chain parts run from the residue outwards. [ ]: non-standard residue; d: D form. The star is where a group is joined. ξ: configuration not given here. C10 = S-[42-(cholest-5-en-3-yloxy)-2,42-dioxo-6,9,12,15,18,21,24,27,30,33,36,39-dodecaoxa-3-azadotetracont-1-yl]-L-cysteine, Cys(oxa12-cholesterol), CC(C)CCC[C@@H](C)[C@H]1CC[C@H]2[C@@H]3CC=C4C[C@@H](OC(=O)CCOCCOCCOCCOCCOCCOCCOCCOCCOCCOCCOCCOCCNC(=O)CSC[C@H](N[*:1])C(=O)[*:2])CC[C@]4(C)[C@H]3CC[C@]12C; X1 = CC(C)CCCC(C)[C@H]1CCC2C3CC=C4C[C@@H](OC(=O)CCOCCOCCOCCOCCOCCOCCOCCOCCOCCOCCOCCOCCNC(=O)C*)CC[C@]4(C)C3CC[C@@]21C; CH2CO2(3ξ-cholesteryl) = CC(C)CCC[C@@H](C)[C@H]1CC[C@H]2[C@@H]3CC=C4CC(OC(=O)C*)CC[C@]4(C)[C@H]3CC[C@]12C; γGlu = O=C(O)[C@H](CCC(=O)[*:2])N[*:1]; mPEG2 40kDa = C3 = Cys(mPEG)2 40 kDa; Palmitoyl = CCCCCCCCCCCCCCCC(=O)*; Met(O) = CS(=O)CC[C@H](N)C(=O)O; Nle = CCCC[C@H](N)C(=O)O; Ac4c = NC1(C(=O)O)CCC1; Aib = CC(C)(N)C(=O)O

Legend:
hGCGR = hGCGR (Homo sapiens, UniProt P47871); assay: fluorescence cell based cAMP assay, CHO cells stably expressing GCGR; conditions: for GCGR + 10% plasma (fold shift): EC50 with 10% plasma vs without; for Receptor Selectivity: GLP-1R/GCGR, Table 6
hGCGR, sequence (P47871 26-477): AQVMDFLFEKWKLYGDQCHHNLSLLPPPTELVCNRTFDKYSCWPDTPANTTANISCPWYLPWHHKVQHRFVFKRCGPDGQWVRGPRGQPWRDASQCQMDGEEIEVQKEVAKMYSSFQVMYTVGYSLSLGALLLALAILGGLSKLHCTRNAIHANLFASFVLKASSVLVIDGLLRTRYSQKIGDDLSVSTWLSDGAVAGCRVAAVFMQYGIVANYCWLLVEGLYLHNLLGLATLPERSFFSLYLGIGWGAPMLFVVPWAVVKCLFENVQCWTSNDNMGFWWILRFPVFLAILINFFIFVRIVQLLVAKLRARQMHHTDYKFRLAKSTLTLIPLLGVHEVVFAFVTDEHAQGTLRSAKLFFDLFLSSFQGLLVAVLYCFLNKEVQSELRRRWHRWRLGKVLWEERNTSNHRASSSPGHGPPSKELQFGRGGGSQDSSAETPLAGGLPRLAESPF
Experimental: We initially screened peptides in fluorescence cell based assays that measure production of cyclic-AMP (cAMP), using CHO cell lines stably expressing either recombinant human GLP-1R or human GCGR. Determination of Mouse and human GLP-1R and GCGR Agonist Activity was essentially as follows. CHO cells stably expressing mouse or human GLP-1R or GCGR were grown in Iscove's Modified Dulbecco's Medium (IMDM), 10% FBS, 1 mM L-glutamine, penicillin-streptomycin (100 μ/mL) and 750 μg G418/mL for three-four days before harvesting using Enzymefree Dissociation Media (EFDM, Specialty Media). […] The assay was terminated with the addition of the LANCE kit Detection buffer as per the manufacturer's instructions. The plates were held an additional hour at room temperature, then increasing cAMP levels were detected by a decrease in TR-FRET signal as measured in an EnVision counter (PerkinElmer) in comparison to a standard curve of cAMP as per the manufacturer's instructions. Data were analyzed using the linear and nonlinear regression analysis software, GraphPad Prism.
The in vitro potencies shown in Table 10 or Table 11 were determined from the results of assays that were similar to either the cell-based cAMP assays described herein above (Table 10) or the cell-based cAMP assays described in International Published Application No. WO2008101017, which is incorporated herein in its entirety, in particular the cell-based cAMP assays described therein (Table 11).

[1] = pI of the peptide analogs

| Molecule | pI [1] | pI ([1]; Table 10) | further results |
| --- | --- | --- | --- |
| CCCC[C@H](NC(=O)[C@H](CC(C)C)NC(=O)[C@H](Cc1c[nH]c2ccccc12)NC(=O)[C@H](CCC(N)=O)NC(=O)[C@@H](NC(=O)[C@H](Cc1ccccc1)NC(=O)[C@H](CC(=O)O)NC(=O)[C@H](CCC(N)=O)NC(=O)[C@H](C)NC(=O)[C@H](CCCNC(=N)N)NC(=O)[C@H](CCCNC(=N)N)NC(=O)[C@H](CO)NC(=O)[C@H](CC(=O)O)NC(=O)[C@H](CC(C)C)NC(=O)[C@H](Cc1ccc(O)cc1)NC(=O)[C@H](CCCCN)NC(=O)[C@H](CO)NC(=O)[C@H](Cc1ccc(O)cc1)NC(=O)[C@H](CC(=O)O)NC(=O)[C@H](CO)NC(=O)[C@@H](NC(=O)[C@H](Cc1ccccc1)NC(=O)[C@@H](NC(=O)CNC(=O)[C@H](CCC(N)=O)NC(=O)C(C)(C)NC(=O)[C@@H](N)Cc1c[nH]cn1)[C@@H](C)O)[C@@H](C)O)C(C)C)C(=O)N[C@@H](CC(N)=O)C(=O)N[C@H](C(=O)N[C@@H](CCCCN)C(=O)N[C@@H](CCCNC(=N)N)C(=O)N[C@@H](CC(N)=O)C(=O)N[C@@H](CCCNC(=N)N)C(=O)N[C@@H](CC(N)=O)C(=O)N[C@@H](CC(N)=O)C(=O)N[C@H](C(=O)N[C@@H](C)C(=O)N[C@@H](CSCC(=O)OC1CC[C@@]2(C)C(=CC[C@H]3[C@@H]4CC[C@H]([C@H](C)CCCC(C)C)[C@@]4(C)CC[C@@H]32)C1)C(N)=O)[C@@H](C)CC)[C@@H](C)O (stereo partly drawn) [OXM212] (H-H[Aib]QGTFTSDYSKYLDSRRAQDFVQWL[Nle]NTKRNRNNIAC(CH2CO2(3ξ-cholesteryl))-NH2; N-terminus assumed) | – | – | GCGR + 10% plasma (fold shift) (hGCGR): (92x) fold |
| CC[C@H](C)[C@H](NC(=O)[C@H](CC(N)=O)NC(=O)[C@H](CC(N)=O)NC(=O)[C@H](CCCNC(=N)N)NC(=O)[C@H](CC(N)=O)NC(=O)[C@H](CCCNC(=N)N)NC(=O)[C@H](CCCCN)NC(=O)[C@@H](NC(=O)[C@H](CC(N)=O)NC(=O)[C@H](CCOC)NC(=O)[C@H](CC(C)C)NC(=O)[C@H](Cc1c[nH]c2ccccc12)NC(=O)[C@H](CCC(N)=O)NC(=O)[C@@H](NC(=O)[C@H](Cc1ccccc1)NC(=O)[C@H](CC(=O)O)NC(=O)[C@H](CCC(N)=O)NC(=O)[C@H](C)NC(=O)[C@H](CCCNC(=N)N)NC(=O)[C@H](CCCNC(=N)N)NC(=O)[C@H](CO)NC(=O)[C@H](CC(=O)O)NC(=O)[C@H](CC(C)C)NC(=O)[C@H](Cc1ccc(O)cc1)NC(=O)[C@H](CCCCN)NC(=O)[C@H](CO)NC(=O)[C@H](Cc1ccc(O)cc1)NC(=O)[C@H](CC(=O)O)NC(=O)[C@H](CO)NC(=O)[C@@H](NC(=O)[C@H](Cc1ccccc1)NC(=O)[C@@H](NC(=O)CNC(=O)[C@H](CCC(N)=O)NC(=O)C(C)(C)NC(=O)[C@@H](N)Cc1c[nH]cn1)[C@@H](C)O)[C@@H](C)O)C(C)C)[C@@H](C)O)C(=O)N[C@@H](C)C(=O)N[C@@H](CSCC(=O)OC1CC[C@@]2(C)C(=CC[C@H]3[C@@H]4CC[C@H]([C@H](C)CCCC(C)C)[C@@]4(C)CC[C@@H]32)C1)C(N)=O (stereo partly drawn) [OXM213] | – | – | GCGR + 10% plasma (fold shift) (hGCGR): (44x) fold |
| CSCC[C@H](NC(=O)[C@H](CC(C)C)NC(=O)[C@H](Cc1c[nH]c2ccccc12)NC(=O)[C@H](CCC(N)=O)NC(=O)[C@@H](NC(=O)[C@H](Cc1ccccc1)NC(=O)[C@H](CC(=O)O)NC(=O)[C@@H]1CCCCNC(=O)CC[C@H](NC(=O)[C@H](CC(=O)O)NC(=O)[C@H](CC(C)C)NC(=O)[C@H](Cc2ccc(O)cc2)NC(=O)[C@H](CCCCN)NC(=O)[C@H](CO)NC(=O)[C@H](Cc2ccc(O)cc2)NC(=O)[C@H](CC(=O)O)NC(=O)[C@H](CO)NC(=O)[C@@H](NC(=O)[C@H](Cc2ccccc2)NC(=O)[C@@H](NC(=O)CNC(=O)[C@H](CCC(N)=O)NC(=O)[C@@H](CO)NC(=O)[C@@H](N)Cc2c[nH]cn2)[C@@H](C)O)[C@@H](C)O)C(=O)N[C@@H](CCCNC(=N)N)C(=O)N[C@@H](CCCNC(=N)N)C(=O)N[C@@H](C)C(=O)N1)C(C)C)C(=O)N[C@@H](CC(N)=O)C(=O)N[C@H](C(=O)N[C@@H](CCCCN)C(=O)N[C@@H](CCC(=O)N[C@@H](CCC(=O)N[C@@H](CSCC(=O)NCCOCCOCCOCCOCCOCCOCCOCCOCCOCCOCCOCCOCCC(=O)O[C@H]1CC[C@@]2(C)C(=CCC3C2CC[C@@]2(C)C3CC[C@@H]2C(C)CCCC(C)C)C1)C(=O)O)C(=O)O)C(=O)O)[C@@H](C)O (stereo partly drawn) [OXM392] (H-H[dS]QGTFTSDYSKYLDERRAKDFVQWLMNTK[γGlu][γGlu]C(X1)-OH; lactam 16-20) | about 5.4 | 5.4 | – |
| CCCCCCCCCCCCCCCC(=O)N[C@@H](CCC(=O)NCCCC[C@H](NC(=O)[C@H](CC(=O)O)NC(=O)[C@H](CO)NC(=O)[C@@H](NC(=O)[C@H](Cc1ccccc1)NC(=O)[C@@H](NC(=O)CNC(=O)[C@H](CCC(N)=O)NC(=O)[C@@H](CO)NC(=O)[C@@H](N)Cc1c[nH]cn1)[C@@H](C)O)[C@@H](C)O)C(=O)N[C@@H](CO)C(=O)N[C@@H](CCCCN)C(=O)N[C@@H](Cc1ccc(O)cc1)C(=O)N[C@@H](CC(C)C)C(=O)N[C@@H](CC(=O)O)C(=O)N[C@@H](CCC(=O)O)C(=O)N[C@@H](CCCNC(=N)N)C(=O)N[C@@H](CCCNC(=N)N)C(=O)N[C@@H](C)C(=O)N[C@@H](CCC(N)=O)C(=O)N[C@@H](CC(=O)O)C(=O)N[C@@H](Cc1ccccc1)C(=O)N[C@H](C(=O)N[C@@H](CCC(N)=O)C(=O)N[C@@H](Cc1c[nH]c2ccccc12)C(=O)N[C@@H](CC(C)C)C(=O)N[C@@H](CCSC)C(=O)N[C@@H](CC(N)=O)C(=O)N[C@H](C(=O)N[C@@H](CCCCN)C(=O)N[C@@H](CCC(N)=O)C(=O)O)[C@@H](C)O)C(C)C)C(=O)O [OXM414] (H-H[dS]QGTFTSDK([γGlu-Palmitoyl])SKYLDERRAQDFVQWLMNTKQ-OH; N-terminus and C-terminus assumed) | – | 5.4 | – |
| CCCCCCCCCCCCCCCC(=O)N[C@@H](CCC(=O)N[C@@H](CCC(=O)NCCCC[C@H](NC(=O)[C@H](CC(=O)O)NC(=O)[C@H](CO)NC(=O)[C@@H](NC(=O)[C@H](Cc1ccccc1)NC(=O)[C@@H](NC(=O)CNC(=O)[C@H](CCC(N)=O)NC(=O)C(C)(C)NC(=O)[C@@H](N)Cc1c[nH]cn1)[C@@H](C)O)[C@@H](C)O)C(=O)N[C@@H](CO)C(=O)N[C@@H](CCCCN)C(=O)N[C@@H](Cc1ccc(O)cc1)C(=O)N[C@@H](CC(C)C)C(=O)N[C@@H](CC(=O)O)C(=O)N[C@@H](CCC(=O)O)C(=O)N[C@@H](CCCNC(=N)N)C(=O)N[C@@H](CCCNC(=N)N)C(=O)N[C@@H](C)C(=O)N[C@@H](CCC(N)=O)C(=O)N[C@@H](CC(=O)O)C(=O)N[C@@H](Cc1ccccc1)C(=O)N[C@H](C(=O)N[C@@H](CCC(N)=O)C(=O)N[C@@H](Cc1c[nH]c2ccccc12)C(=O)N[C@@H](CC(C)C)C(=O)N[C@@H](CCSC)C(=O)N[C@@H](CC(N)=O)C(=O)N[C@H](C(=O)N[C@@H](CCCCN)C(N)=O)[C@@H](C)O)C(C)C)C(=O)O)C(=O)O [OXM416] (H-H[Aib]QGTFTSDK([γGlu-γGlu-Palmitoyl])SKYLDERRAQDFVQWLMNTK-NH2) | – | 5.5 | – |
| CCCCCCCCCCCCCCCC(=O)N[C@@H](CCC(=O)N[C@@H](CCC(=O)NCCCC[C@H](NC(=O)[C@H](CC(=O)O)NC(=O)[C@H](CO)NC(=O)[C@@H](NC(=O)[C@H](Cc1ccccc1)NC(=O)[C@@H](NC(=O)CNC(=O)[C@H](CCC(N)=O)NC(=O)C1(NC(=O)[C@@H](N)Cc2c[nH]cn2)CCC1)[C@@H](C)O)[C@@H](C)O)C(=O)N[C@@H](CO)C(=O)N[C@@H](CCCCN)C(=O)N[C@@H](Cc1ccc(O)cc1)C(=O)N[C@@H](CC(C)C)C(=O)N[C@@H](CC(=O)O)C(=O)N[C@@H](CCC(=O)O)C(=O)N[C@@H](CCCNC(=N)N)C(=O)N[C@@H](CCCNC(=N)N)C(=O)N[C@@H](C)C(=O)N[C@@H](CCC(N)=O)C(=O)N[C@@H](CC(=O)O)C(=O)N[C@@H](Cc1ccccc1)C(=O)N[C@H](C(=O)N[C@@H](CCC(N)=O)C(=O)N[C@@H](Cc1c[nH]c2ccccc12)C(=O)N[C@@H](CC(C)C)C(=O)N[C@@H](CCSC)C(=O)N[C@@H](CC(N)=O)C(=O)N[C@H](C(=O)N[C@@H](CCCCN)C(N)=O)[C@@H](C)O)C(C)C)C(=O)O)C(=O)O [OXM417] (H-H[Ac4c]QGTFTSDK([γGlu-γGlu-Palmitoyl])SKYLDERRAQDFVQWLMNTK-NH2) | – | 5.5 | EC50 (hGCGR; hGCGR + 20% plasma EC50, Table 10, 20% plasma): 0.4 nM |
| H-Acb-QGTFTSDYSKYLDERRAKDFVQWLMNTK-γE-γE-C10-COOH (lactam bridge between E and K) (H-H[Ac4c]QGTFTSDYSKYLDERRAKDFVQWLMNTK[γGlu][γGlu][C10]-OH; lactam 16-20) [OXM398] | about 5.4 | – | – |
| HsQGTFTSDYSSYLDSRRAQDFVQWLMNTK-γE-C4-COOH [OXM355] | about 5 | – | – |
| HαQGTFTSDYC3KYLDSRRAQDFVQWLmNTKRNRNNIA-CONH2 (H[Aib]QGTFTSDYC(mPEG2 40kDa)KYLDSRRAQDFVQWL[Met(O)]NTKRNRNNIA-NH2; not fully specified; printed as HαQGTFTSDYC3KYLDSRRAQDFVQWLmNTKRNRNNIA-CONH2) [OXM121] | – | – | Receptor Selectivity (hGCGR): 0/0 |
| HαQGTFTSDYSC3YLDSRRAQDFVQWLmNTKRNRNNIA-CONH2 (H[Aib]QGTFTSDYSC(mPEG2 40kDa)YLDSRRAQDFVQWL[Met(O)]NTKRNRNNIA-NH2; not fully specified; printed as HαQGTFTSDYSC3YLDSRRAQDFVQWLmNTKRNRNNIA-CONH2) [OXM124] | – | – | Receptor Selectivity (hGCGR): 0/0 |
